The NIST ThermoML archive (doi:10.1016/j.jct.2016.07.005)
± gives the expanded uncertainty stated by the source.

Assay: xn = mol fraction of the nth substance listed
Details: 100 kPa, Liquid; for viscosity: Concentric cylinders viscometry; for mass density: Vibrating tube method

CN1CCC[C@H]1c1cccnc1 [(-)-3-(N-methylpyrrolidino)pyridine] + OCCCO
Details	mass density [kg/m3]	viscosity [mPa·s]
293.15 K, x1 = 0.1	1049.36 ± 1.3	63.86 ± 1.4
293.15 K, x1 = 0.1999	1045.43 ± 1.2	63.55 ± 1.4
293.15 K, x1 = 0.3	1041.3 ± 1.2	55.97 ± 1.2
293.15 K, x1 = 0.3994	1037.05 ± 1.1	44.97 ± 0.98
293.15 K, x1 = 0.5	1032.67 ± 1.1	33.15 ± 0.72
293.15 K, x1 = 0.6004	1028.25 ± 1.1	22.75 ± 0.49
293.15 K, x1 = 0.7	1023.76 ± 1.1	14.91 ± 0.32
293.15 K, x1 = 0.8	1019.33 ± 1	9.805 ± 0.21
293.15 K, x1 = 0.9	1014.74 ± 1	6.894 ± 0.14
293.15 K, x1 = 1	1010.23 ± 1	4.694 ± 0.098
298.15 K, x1 = 0.1	1045.96 ± 1.3	48.97 ± 1.1
298.15 K, x1 = 0.1999	1041.83 ± 1.2	48.13 ± 1.1
298.15 K, x1 = 0.3	1037.55 ± 1.2	42.26 ± 0.93
298.15 K, x1 = 0.3994	1033.17 ± 1.1	34.05 ± 0.74
298.15 K, x1 = 0.5	1028.72 ± 1.1	25.35 ± 0.55
298.15 K, x1 = 0.6004	1024.24 ± 1.1	17.71 ± 0.38
298.15 K, x1 = 0.7	1019.71 ± 1.1	11.93 ± 0.25
298.15 K, x1 = 0.8	1015.26 ± 1	8.105 ± 0.17
298.15 K, x1 = 0.9	1010.67 ± 1	5.832 ± 0.12
298.15 K, x1 = 1	1006.16 ± 1	4.048 ± 0.085
303.15 K, x1 = 0.1	1042.55 ± 1.3	37.97 ± 0.85
303.15 K, x1 = 0.1999	1038.21 ± 1.2	36.9 ± 0.82
303.15 K, x1 = 0.3	1033.78 ± 1.2	32.31 ± 0.71
303.15 K, x1 = 0.3994	1029.3 ± 1.1	26.12 ± 0.57
303.15 K, x1 = 0.5	1024.77 ± 1.1	19.64 ± 0.42
303.15 K, x1 = 0.6004	1020.24 ± 1.1	13.95 ± 0.3
303.15 K, x1 = 0.7	1015.68 ± 1.1	9.624 ± 0.2
303.15 K, x1 = 0.8	1011.2 ± 1	6.722 ± 0.14
303.15 K, x1 = 0.9	1006.61 ± 1	4.943 ± 0.1
303.15 K, x1 = 1	1002.1 ± 1	3.518 ± 0.074
308.15 K, x1 = 0.1	1039.14 ± 1.3	29.84 ± 0.67
308.15 K, x1 = 0.1999	1034.59 ± 1.2	28.71 ± 0.64
308.15 K, x1 = 0.3	1030.01 ± 1.2	25.12 ± 0.55
308.15 K, x1 = 0.3994	1025.41 ± 1.1	20.41 ± 0.44
308.15 K, x1 = 0.5	1020.81 ± 1.1	15.5 ± 0.34
308.15 K, x1 = 0.6004	1016.23 ± 1.1	11.19 ± 0.24
308.15 K, x1 = 0.7	1011.64 ± 1.1	7.885 ± 0.17
308.15 K, x1 = 0.8	1007.15 ± 1	5.621 ± 0.12
308.15 K, x1 = 0.9	1002.55 ± 1	4.2 ± 0.088
308.15 K, x1 = 1	998.055 ± 1	3.088 ± 0.065
313.15 K, x1 = 0.1	1035.71 ± 1.3	23.69 ± 0.53
313.15 K, x1 = 0.1999	1030.96 ± 1.2	22.59 ± 0.5
313.15 K, x1 = 0.3	1026.23 ± 1.2	19.74 ± 0.43
313.15 K, x1 = 0.3994	1021.52 ± 1.1	16.11 ± 0.35
313.15 K, x1 = 0.5	1016.85 ± 1.1	12.36 ± 0.27
313.15 K, x1 = 0.6004	1012.22 ± 1.1	9.06 ± 0.19
313.15 K, x1 = 0.7	1007.6 ± 1.1	6.513 ± 0.14
313.15 K, x1 = 0.8	1003.09 ± 1	4.749 ± 0.1
313.15 K, x1 = 0.9	998.498 ± 1	3.625 ± 0.076
313.15 K, x1 = 1	994.014 ± 1	2.758 ± 0.058
318.15 K, x1 = 0.1	1032.27 ± 1.2	19.28 ± 0.43
318.15 K, x1 = 0.1999	1027.32 ± 1.2	18.26 ± 0.4
318.15 K, x1 = 0.3	1022.43 ± 1.2	15.95 ± 0.35
318.15 K, x1 = 0.3994	1017.62 ± 1.1	13.08 ± 0.28
318.15 K, x1 = 0.5	1012.88 ± 1.1	10.14 ± 0.22
318.15 K, x1 = 0.6004	1008.21 ± 1.1	7.559 ± 0.16
318.15 K, x1 = 0.7	1003.56 ± 1.1	5.549 ± 0.12
318.15 K, x1 = 0.8	999.04 ± 1	4.128 ± 0.088
318.15 K, x1 = 0.9	994.453 ± 1	3.18 ± 0.067
318.15 K, x1 = 1	989.984 ± 1	2.411 ± 0.051
323.15 K, x1 = 0.1	1028.82 ± 1.2	15.87 ± 0.35
323.15 K, x1 = 0.1999	1023.66 ± 1.2	14.94 ± 0.33
323.15 K, x1 = 0.3	1018.63 ± 1.2	13.05 ± 0.29
323.15 K, x1 = 0.3994	1013.72 ± 1.1	10.76 ± 0.23
323.15 K, x1 = 0.5	1008.9 ± 1.1	8.437 ± 0.18
323.15 K, x1 = 0.6004	1004.18 ± 1.1	6.389 ± 0.14
323.15 K, x1 = 0.7	999.506 ± 1.1	4.782 ± 0.1
323.15 K, x1 = 0.8	994.989 ± 1	3.625 ± 0.077
323.15 K, x1 = 0.9	990.406 ± 1	2.837 ± 0.06
323.15 K, x1 = 1	985.962 ± 1	2.195 ± 0.046
